# Results as given in article PMC13112199 (Nature nanotechnology, 2025).
# “Also recorded” adds a separate entry of the source.
# Assays:
# [1] = UPLC in vitro release assay of small molecules from MDP hydrogels; assay type: physicochemical
# [2] = Boronate ester association; assay type: physicochemical; conditions: SHA vs catechol, across boronic acids
# [3] = UV–vis stability of dynamic covalent bonding motifs in solution; conditions: pH 7.4 PBS, over 15 days
# [4] = female, BALB/c, mouse, in vivo, sc
# [5] = Bortezomib pharmacokinetics after subcutaneous injection; conditions: 175 ng sc, alone without hydrogel
# [6] = Stability of ganfeborole loaded in hydrogels quantified by UPLC; assay type: physicochemical
# M. tuberculosis H37Rv = experiment: Mouse model of acute tuberculosis, lung CFU counts; assay type: in vivo, Mycobacterium tuberculosis; conditions: for reduction of colony-forming units in lungs: 600 μg single sc injection without hydrogel; for reduction in bacterial burden compared with vehicle control: ten oral doses of 60 μg
# [7] = high doses; cited from earlier work
# [8] = Ganfeborole pharmacokinetics after subcutaneous injection
# blood glucose levels = experiment: Mouse type 1 diabetes model, blood glucose control; assay type: in vivo; conditions: 3 IU sc without a hydrogel, diabetic mice
# [9] = from Cat-K2 hydrogel, first 2 h
# [10] = from nitroCat-K2 hydrogel, 24 h
# [11] = from unmodified K2 hydrogel, first 2 h, 10 mg ml^-1 peptide, PBS, 37 °C
# [12] = 600 μg in SHA-E2, non-compartmental analysis
# [13] = 600 μg in SHA-K2 vs drug alone, non-compartmental analysis
molecule,measurement,setting,value
COCCOc1nc(N)c2[nH]c(=O)n(Cc3ccc(C(=O)O)cc3)c2n1 [Compound 1V209],in vitro release kinetics from SABER hydrogels,"[1]; drug without BA, SABER hydrogels vs K2",no altered release kinetics were observed
"O=C(NO)c1ccccc1O [SHA, salicylhydroxamic acid]",boronate ester association constant relative to catechol association constants,[2],6.5- to 9.6 fold
same,stability in solution by UV–vis,[3],excellent stability over 15 days in solution
CC(C)C[C@H](NC(=O)[C@H](Cc1ccccc1)NC(=O)c1cnccn1)B(O)O [bortezomib],drug released in vitro,[1]; [9],> 57.1%
same,glucose dependence of in vitro release,"[1]; from SHA-K2, physiologically relevant glucose range",independent of glucose concentration
same,drug released in vitro,"[1]; from SHA-K2 hydrogel, 2 h",15–25%
same,drug released in vitro,"[1]; from SHA-K2 hydrogel, 24 h",50–70%
same,drug released in vitro,"[1]; from nitroCat-K2 hydrogel, 2 h",15–25%
same,drug released in vitro,[1]; [10],50–70%
same,drug released in vitro,[1]; [11],> 82.3%
same,blood concentration at 336 h relative to peak-matched 175 ng control,[4],2.7 fold
same,maximum concentration,[5],21.2 ± 3.1 ng/mL
NC[C@H]1OB(O)c2c(OCCO)ccc(Cl)c21 [ganfeborole],in vitro release rate,[1]; from K2 hydrogel,similarly rapid release rates
same,drug released in vitro,"[1]; from K2 hydrogel, 30 min",59.0 ± 1.1%
same,in vitro release,"[1]; from SHA-E2 hydrogel, loaded at 0.5 mg ml^-1",significantly slowed the release; also recorded: performed similarly to SHA-K2
same,drug released in vitro,"[1]; from SHA-K2 hydrogel, 24 h",48.7 ± 2.5%
same,in vitro release rate,"[1]; from SHA-K2 hydrogel, compared with K2",significantly extend the release
same,in vitro release rate,[1]; from nitroCat-K2 hydrogel,similarly rapid release rates
same,stability of drug loaded in hydrogel,[6]; in Cat-K2,rapid oxidative degradation; also recorded: rapidly degrades the compound
same,stability of drug loaded in hydrogel,"[6]; in K2, nitroCat-K2 and SHA-K2 (all hydrogels except Cat-K2), two weeks",majority of the drug remains stable over the course of two weeks
same,bacterial burden reduction compared with oral dosing,M. tuberculosis H37Rv; 600 μg single injection in SHA-E2 vs ten oral doses,~10 fold
same,reduction in bacterial lung burden compared with vehicle control,"M. tuberculosis H37Rv; 600 μg single sc injection in SHA-E2, 7 days",2.58 log10
same,reduction in bacterial lung burden compared with vehicle control,"M. tuberculosis H37Rv; 600 μg single sc injection in SHA-E2, 14 days",4.12 log10
same,reduction of colony-forming units in lungs,M. tuberculosis H37Rv; 7 days,0.95 log10
same,reduction of colony-forming units in lungs,M. tuberculosis H37Rv; 14 days,1.55 log10
same,reduction in bacterial burden compared with vehicle control,M. tuberculosis H37Rv; 7 days,1.67 log10
same,reduction in bacterial burden compared with vehicle control,M. tuberculosis H37Rv; 14 days,3.32 log10
same,tolerability in humans,[7],well tolerated in humans at high doses
same,in vivo release,[8]; 75 μg sc in 50 μl of 10 mg ml^-1 K2,unable to prolong drug release in vivo
same,duration of concentration above the EC50 relative to other groups,"[8]; 75 μg sc in 50 μl of 10 mg ml^-1 SHA-K2, EC50 ref 51",over 4 fold
same,in vivo release,[8]; 75 μg sc in 50 μl of 10 mg ml^-1 nitroCat-K2,unable to prolong drug release in vivo
same,in vivo release compared with unmodified E2 hydrogel,[8]; 600 μg in 200 μl of 20 mg ml^-1 SHA-E2,prolongs drug release
same,enhancement of half-life compared with ganfeborole alone,[8]; 600 μg in SHA-E2,over 10 fold
same,effect on Cmax,[8]; [12],reduces the maximum circulating concentration
same,effect on drug exposure (AUC),[8]; [12],improves drug exposure
same,effect on Cmax,[8]; 600 μg in SHA-K2 vs drug alone,reducing the maximum drug concentration
same,improvement of AUC,[8]; [13],2.8 fold
same,increase of half-life,[8]; [13],6.5 fold
CC(C)C[C@H](NC(=O)CNC(=O)c1cc(Cl)ccc1Cl)B(O)O [ixazomib],drug released in vitro,[1]; [9],> 57.1%
same,drug released in vitro,"[1]; from SHA-K2 hydrogel, 2 h",15–25%
same,drug released in vitro,"[1]; from SHA-K2 hydrogel, 24 h",50–70%
same,drug released in vitro,"[1]; from nitroCat-K2 hydrogel, 2 h",15–25%
same,drug released in vitro,[1]; [10],50–70%
same,drug released in vitro,[1]; [11],> 82.3%
OB1OCc2cc(F)ccc21 [tavaborole],drug released in vitro,"[1]; from Cat-K2 hydrogel, 24 h",80.0 ± 4.7%
same,drug released in vitro,"[1]; from SHA-K2 hydrogel, 24 h",49.1 ± 0.3%
same,drug released in vitro,[1]; [10],64.8 ± 0.9%
insulin: commercially purchased unmodified insulin,time until mice became hyperglycemic again,blood glucose levels,≤ 4 h
same,time until mice became hyperglycemic again,blood glucose levels; listed as unmodified insulin,less than 4 h
